Data from patent US12667572B2, “Tricyclic compounds useful in the treatment of cancer, autoimmune and inflammatory disorders” (SCHRÖDINGER, INC., priority 2021, dated 2026).

Legend:
[1] = system: IL10 secretion in OCI-LY10 cells; assay: Human IL10 secretion assay, Assay 1 (HTRF); assay type: cell-based; conditions: 24 h incubation, read-out: IL-10 Secretion IC50 [nM] Assay 1
Experimental: (§1) IL10 is one of the cytokines that are regulated via activation of NF-kB signaling. For example, in ABC-DLBCL cell lines, the activated NF-kB signaling leads to increased IL10 secretion. Inhibition of NF-kB signaling has been shown leading to decreased IL10 secretion.
Assay 1: OCI-LY10 cells were seeded in IMEM supplemented with 20% fetal bovine serum at 3×10^5 cells per well in 96-well round bottom plates (Corning 3799, Corning), treated with 100 nL of 3-fold serial compound dilutions, starting at 10 mM. The final vehicle concentration was 0.1% DMSO in all wells. After 24 h incubation, the cells were transferred to 96-PCR plates (Axygen: PCR-96-FLT-C) and centrifuged, then 16 μL of cell culture media was transferred to HTRF plates and IL10 levels were measured using human IL-10 Assay Kits (Cisbio) using HTRF format. The signals were transformed to percentage of remaining activity by using the high control (HC, median of signal from wells containing cells treated with DMSO) and low control (LC, median of signal from wells with no cells). IC50 values (nM) were determined using 4-parametric curve-fitting and Hill coefficient obtained using Graph Pad Prism (Graph Pad software, Inc, USA) with non-linear regression analysis.

[2] = biological target: T1, full-length MALT1 protein His-MALT1(1-824) (Homo sapiens, UniProt Q9UDY8); assay: MALT1 protease assay, Assay 1 (2 nM MALT1, Ac-LRSR-AMC substrate); assay type: biochemical; conditions: 2 nM MALT1, 50 μM Ac-LRSR-AMC, 2 h pre-incubation, 8 hr incubation at RT
T1 construct: full-length MALT1 protein His-MALT1(1-824); His (N); made in house; host or cells: baculovirus-infected insect cells
T1 sequence (Q9UDY8 1-824): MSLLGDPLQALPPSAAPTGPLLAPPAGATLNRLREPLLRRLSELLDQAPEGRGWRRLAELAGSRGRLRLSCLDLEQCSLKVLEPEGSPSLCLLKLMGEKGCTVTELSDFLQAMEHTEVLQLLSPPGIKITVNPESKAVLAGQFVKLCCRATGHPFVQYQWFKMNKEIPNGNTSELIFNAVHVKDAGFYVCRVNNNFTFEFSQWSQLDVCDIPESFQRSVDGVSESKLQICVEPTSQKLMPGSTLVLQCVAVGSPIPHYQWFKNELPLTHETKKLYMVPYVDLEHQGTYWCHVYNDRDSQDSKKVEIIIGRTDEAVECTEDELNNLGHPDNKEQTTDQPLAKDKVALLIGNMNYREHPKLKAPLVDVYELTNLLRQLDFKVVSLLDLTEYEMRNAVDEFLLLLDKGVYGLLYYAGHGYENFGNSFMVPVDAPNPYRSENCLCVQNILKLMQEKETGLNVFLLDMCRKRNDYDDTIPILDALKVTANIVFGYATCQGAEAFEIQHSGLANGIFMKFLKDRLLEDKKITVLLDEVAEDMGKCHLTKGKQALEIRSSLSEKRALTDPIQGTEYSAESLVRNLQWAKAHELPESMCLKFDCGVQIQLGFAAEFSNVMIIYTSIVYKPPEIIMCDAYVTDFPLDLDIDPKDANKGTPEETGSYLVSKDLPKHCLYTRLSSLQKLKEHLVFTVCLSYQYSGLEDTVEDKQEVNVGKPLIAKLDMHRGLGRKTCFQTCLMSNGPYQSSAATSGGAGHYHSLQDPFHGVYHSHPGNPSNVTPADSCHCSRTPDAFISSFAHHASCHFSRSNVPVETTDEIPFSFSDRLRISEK
Experimental: MALT1 protease activity was assessed in an in vitro assay using a tetrapeptide as substrate and full-length MALT1 protein His-MALT1(1-824) purified from baculovirus-infected insect cells. The tetrapeptide substrate is Ac-LRSR-AMC (SM Biochemicals) with Km measured at around 100 μM.
The final assay buffer includes 1 nM (Assay 2) or 2 nM (Assay 1) of MALT1 full-length protein, 50 μM Ac-LRSR-AMC substrate, 50 mM Tris pH 7.5, 600 mM Sodium Citrate, 1 mM DTT, 1 mM EDTA, and 0.05% BSA in 384-well plate format using black microtiter square well plates (Optiplate 384-F, Perkin Elmer).
Test compounds were dissolved in 100% DMSO at stock of 10 mM, with final DMSO concentration 0.1%. Test compounds were pre-incubated with MALT1 protein for 2 h at room temperature. Substrate was added after the pre-incubation and fluorescence signal was measured using Envision at excitation 355 nm and emission 460 nm after 8 hr incubation at RT. Increase in the assay signal was linear over this period and proportional with increase in the enzyme content.
The fluorescence units were transformed to percentage of remaining activity by using the high control (HC, median of fluorescence signal from wells containing MALT1 protein, substrate, and DMSO) and low control (LC, median of fluorescence signal from wells with substrate only) with the formula below: […]
IC50 and Hill coefficients were obtained using Graph Pad Prism (Graph Pad software, Inc, USA) with non-linear regression analysis.

[3] = biological target: T1, full-length MALT1 protein His-MALT1(1-824); assay: MALT1 protease assay, Assay 2 (1 nM MALT1, Ac-LRSR-AMC substrate); assay type: biochemical; conditions: 1 nM MALT1, 50 μM Ac-LRSR-AMC, 2 h pre-incubation, 8 hr incubation at RT
Summary of the method: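 Compounds (0.1% DMSO final) sat 2 h at RT with insect-cell-expressed His-MALT1(1-824), in 50 mM Tris pH 7.5, 600 mM sodium citrate, 1 mM DTT, 1 mM EDTA, 0.05% BSA. Cleavage of 50 μM Ac-LRSR-AMC (Km ~100 μM) ran 8 h at RT, read as AMC fluorescence. IC50 and Hill coefficient fitted to % remaining activity.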

[4] = system: IL10 secretion in OCI-LY10 cells; assay: Human IL10 secretion assay, Assay 2 (MSD); assay type: cell-based; conditions: Homo sapiens, 24 h incubation, Meso Scale Discovery, read-out: IL-10 Secretion IC50 [nM] Assay 2
Experimental: as §1
Assay 2: OCI-LY10 cells were seeded in IMEM supplemented with 20% fetal bovine serum at 4.8×10^5 cells per 160 μL per well in 96-well V-bottom cell culture plates (corning, 3894), treated with 120 nL of 3-fold serial compound dilutions, starting at 4 mM. The final vehicle concentration was 0.075% DMSO in all wells. After a 24 h incubation, human IL-10 precoated plates (Meso Scale Discovery) were washed 3 times with PBST, and 50 μL culture medium was aspirated into the MSD plate and incubated at 4° C. overnight. The supernatant was then discarded, and the wells were washed 3 times with PB ST. SULFO-TAG Anti-human IL-10 Antibody (50×) was diluted 50-fold according to the Meso Scale Protocol, then 25 μL of SULFO-TAG Anti-human IL-10 Antibody (1×) was added. After 2 h of incubation at RT, the supernatant was discarded, and the well was washed 3 times with PBST. 2×read buffer was added and the signal was read on an MSD Sector S600. The effect of a particular compound on IL10 secretion is shown relative to the effect of DMSO; set as 100%. IC50 values (nM) were determined using 4-parametric curve-fitting.

Compound	IC50 [1]	IC50 [2]	IC50 [3]	IC50 [4]
CC1(C)CC(C(=O)Nc2cnc(-n3nccn3)c(Cl)c2)c2cnc3cc(Cl)nn3c21 (single isomer, unassigned) [Example 2, 2-chloro-N-(5-chloro-6-(2H-1,2,3-triazol-2-yl)pyridin-3-yl)-8,8-dimethyl-7,8-dihydro-6H-cyclopenta[e]pyrazolo[1,5-a]pyrimidine-6-carboxamide]	100 to 1000 nM	< 10 nM	–	–
Cc1cc2ncc3c(n2n1)C(C)(C)C[C@@H]3C(=O)Nc1cnc(-n2nccn2)c(Cl)c1 (single isomer, unassigned) [Example 6, N-(5-chloro-6-(2H-1,2,3-triazol-2-yl)pyridin-3-yl)-2,8,8-trimethyl-7,8-dihydro-6H-cyclopenta[e]pyrazolo[1,5-a]pyrimidine-6-carboxamide]	100 to 1000 nM	< 10 nM	–	–
CC1(C)CCC(C(=O)Nc2cnc(-n3nccn3)c(Cl)c2)c2cnc3cc(Cl)nn3c21 (single isomer, unassigned) [Example 9, 2-chloro-N-(5-chloro-6-(2H-1,2,3-triazol-2-yl)pyridin-3-yl)-9,9-dimethyl-6,7,8,9-tetrahydropyrazolo[1,5-a]quinazoline-6-carboxamide]	100 to 1000 nM	10 to 100 nM	–	–
Cn1ccc(-c2ncc(NC(=O)C3CC(C)(C)c4c3cnc3cc(Cl)nn43)cc2Cl)n1 (single isomer, unassigned) [Example 11, 2-chloro-N-(5-chloro-6-(1-methyl-1H-pyrazol-3-yl)pyridin-3-yl)-8,8-dimethyl-7,8-dihydro-6H-cyclopenta[e]pyrazolo[1,5-a]pyrimidine-6-carboxamide]	100 to 1000 nM	10 to 100 nM	–	–
CC1(C)CC(C(=O)Nc2cnc(-n3cccn3)c(Cl)c2)c2cnc3cc(Cl)nn3c21 (single isomer, unassigned) [Example 13, 2-chloro-N-(5-chloro-6-(1H-pyrazol-1-yl)pyridin-3-yl)-8,8-dimethyl-7,8-dihydro-6H-cyclopenta[e]pyrazolo[1,5-a]pyrimidine-6-carboxamide]	100 to 1000 nM	10 to 100 nM	–	–
CC(C)(O)c1cnn(-c2ncc(NC(=O)C3CC(C)(C)c4c3cnc3cc(Cl)nn43)cc2Cl)n1 (single isomer, unassigned) [Example 23, 2-chloro-N-(5-chloro-6-(4-(2-hydroxypropan-2-yl)-2H-1,2,3-triazol-2-yl)pyridin-3-yl)-8,8-dimethyl-7,8-dihydro-6H-cyclopenta[e]pyrazolo[1,5-a]pyrimidine-6-carboxamide]	100 to 1000 nM	< 10 nM	–	–
CC1(C)CC(C(=O)Nc2cnc(-c3nnn(CCO)n3)c(Cl)c2)c2cnc3cc(Cl)nn3c21 (centres unmarked) [Example 123, 2-chloro-N-(5-chloro-6-(2-(2-hydroxyethyl)-2H-tetrazol-5-yl)pyridin-3-yl)-8,8-dimethyl-7,8-dihydro-6H-cyclopenta[e]pyrazolo[1,5-a]pyrimidine-6-carboxamide]	–	–	10 to 100 nM	≥ 1000 nM

The next lines start with the values.

IC50 [1]	IC50 [2]	IC50 [3]	IC50 [4]	Compound
100 to 1000 nM	10 to 100 nM	–	–	CC1(C)CC(C(=O)Nc2cnc(-n3nccn3)c(Cl)c2)c2cnc3cc(C#N)nn3c21 (single isomer, unassigned) [Example 4, N-(5-chloro-6-(2H-1,2,3-triazol-2-yl)pyridin-3-yl)-2-cyano-8,8-dimethyl-7,8-dihydro-6H-cyclopenta[e]pyrazolo[1,5-a]pyrimidine-6-carboxamide]
≥ 1000 nM	10 to 100 nM	–	–	CCc1cc2ncc3c(n2n1)C(C)(C)CC3C(=O)Nc1cnc(-n2nccn2)c(Cl)c1 (single isomer, unassigned) [Example 21, N-(5-chloro-6-(2H-1,2,3-triazol-2-yl)pyridin-3-yl)-2-ethyl-8,8-dimethyl-7,8-dihydro-6H-cyclopenta[e]pyrazolo[1,5-a]pyrimidine-6-carboxamide]
–	–	< 10 nM	10 to 100 nM	CC1(C)CC(C(=O)Nc2cnc(-n3nccn3)c(Cl)c2)c2cnn3cc(Cl)nc3c21 (single isomer, unassigned) [Example 195, 2-chloro-N-(5-chloro-6-(2H-1,2,3-triazol-2-yl)pyridin-3-yl)-9,9-dimethyl-8,9-dihydro-7H-cyclopenta[d]imidazo[1,2-b]pyridazine-7-carboxamide]
